Among the data in ChEMBL document CHEMBL1149417 (Bioorg Med Chem Lett, 2006) are IC50 and EC50 values, retold here.

Usually IC50 stands for the concentration that inhibits the measured activity by half. Lower therefore signals greater potency. As a reminder, the EC50 is the concentration giving half of the maximal effect. Read a low EC50 as an effect from little substance.

In the first assay the target is T1, Estrogen receptor (Homo sapiens, UniProt P03372).
T1 sequence (P03372 whole entry): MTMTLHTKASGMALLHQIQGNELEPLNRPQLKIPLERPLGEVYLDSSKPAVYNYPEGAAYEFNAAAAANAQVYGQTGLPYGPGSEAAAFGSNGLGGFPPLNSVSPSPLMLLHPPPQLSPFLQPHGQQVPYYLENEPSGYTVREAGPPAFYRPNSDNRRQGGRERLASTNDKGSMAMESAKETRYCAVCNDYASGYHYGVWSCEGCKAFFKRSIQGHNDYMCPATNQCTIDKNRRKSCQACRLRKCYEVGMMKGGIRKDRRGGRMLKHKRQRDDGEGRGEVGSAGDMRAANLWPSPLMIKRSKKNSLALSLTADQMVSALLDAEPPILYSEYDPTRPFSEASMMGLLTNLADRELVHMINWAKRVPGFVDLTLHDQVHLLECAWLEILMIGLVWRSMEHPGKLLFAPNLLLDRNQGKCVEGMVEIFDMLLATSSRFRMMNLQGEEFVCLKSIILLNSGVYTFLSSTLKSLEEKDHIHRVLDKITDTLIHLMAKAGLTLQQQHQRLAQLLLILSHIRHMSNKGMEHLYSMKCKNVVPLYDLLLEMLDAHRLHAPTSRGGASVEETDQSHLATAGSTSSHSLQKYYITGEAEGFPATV
Description: Binding affinity to human ERalpha
In turn, `C[C@]12CCC3C(CC=C4C[C@@H](O)CC[C@@]43C=O)C1CC[C@@H]2O` (some centres not stated) showed an IC50 above 10000 nM.
In turn, `CO/C=C\[C@]12CC[C@H](O)CC1=CCC1C2CC[C@@]2(C)C1CC[C@@H]2O` (some centres not stated) registered an IC50 of 3350 nM.
In turn, `C/C=C\[C@]12CC[C@H](O)CC1=CCC1C2CC[C@@]2(C)C1CC[C@@H]2O` (some centres not stated) returned an IC50 of 1960 nM.
Molecule `C=C[C@]12CCC(=O)C=C1CCC1C2CC[C@@]2(C)C1CC[C@@H]2O` (some centres not stated) displayed an IC50 above 10000 nM.
`C[C@]12CCC3C(CC=C4C[C@@H](O)CC[C@@]43CO)C1CC[C@@H]2O` (some centres not stated) displayed an IC50 of 6320 nM. That is a single-digit micromolar value.
Same read-out and setting: next, `C[C@]12CCC3C(CC=C4C[C@@H](O)CC[C@@]43/C=C/F)C1CC[C@@H]2O` (some centres not stated): 4160 nM; `C[C@]12CCC3C(CC=C4C[C@@H](O)CC[C@@]43/C=C\F)C1CC[C@@H]2O` (some centres not stated): 4280 nM.
As to `CCC[C@]12CC[C@H](O)CC1=CCC1C2CC[C@@]2(C)C1CC[C@@H]2O` (some centres not stated), half-maximal inhibition (IC50) required 5160 nM.
`C[C@]12CCC3C(CC=C4C[C@@H](O)CC[C@@]43/C=C/Br)C1CC[C@@H]2O` (some centres not stated) showed an IC50 of 3980 nM.
On the same count and under the same terms, next, `C#CC12CC[C@H](O)CC1=CCC1C2CC[C@@]2(C)C1CC[C@@H]2O` (single isomer, unassigned): 425 nM.
`C[C@]12CCC3C(CC=C4C[C@@H](O)CC[C@@]43/C=C/Cl)C1CC[C@@H]2O` (some centres not stated) gave an IC50 of 5600 nM. This IC50 lies about 13-fold higher than the previous one.
On the same count and under the same terms, next, `C#CC1(O)CCC2C3CC=C4C[C@@H](O)CC[C@]4(C=C)C3CC[C@@]21C` (single isomer, unassigned): 147 nM.

The next assay deals with T2, Androgen receptor (Homo sapiens, UniProt P10275).
T2 sequence (P10275 whole entry): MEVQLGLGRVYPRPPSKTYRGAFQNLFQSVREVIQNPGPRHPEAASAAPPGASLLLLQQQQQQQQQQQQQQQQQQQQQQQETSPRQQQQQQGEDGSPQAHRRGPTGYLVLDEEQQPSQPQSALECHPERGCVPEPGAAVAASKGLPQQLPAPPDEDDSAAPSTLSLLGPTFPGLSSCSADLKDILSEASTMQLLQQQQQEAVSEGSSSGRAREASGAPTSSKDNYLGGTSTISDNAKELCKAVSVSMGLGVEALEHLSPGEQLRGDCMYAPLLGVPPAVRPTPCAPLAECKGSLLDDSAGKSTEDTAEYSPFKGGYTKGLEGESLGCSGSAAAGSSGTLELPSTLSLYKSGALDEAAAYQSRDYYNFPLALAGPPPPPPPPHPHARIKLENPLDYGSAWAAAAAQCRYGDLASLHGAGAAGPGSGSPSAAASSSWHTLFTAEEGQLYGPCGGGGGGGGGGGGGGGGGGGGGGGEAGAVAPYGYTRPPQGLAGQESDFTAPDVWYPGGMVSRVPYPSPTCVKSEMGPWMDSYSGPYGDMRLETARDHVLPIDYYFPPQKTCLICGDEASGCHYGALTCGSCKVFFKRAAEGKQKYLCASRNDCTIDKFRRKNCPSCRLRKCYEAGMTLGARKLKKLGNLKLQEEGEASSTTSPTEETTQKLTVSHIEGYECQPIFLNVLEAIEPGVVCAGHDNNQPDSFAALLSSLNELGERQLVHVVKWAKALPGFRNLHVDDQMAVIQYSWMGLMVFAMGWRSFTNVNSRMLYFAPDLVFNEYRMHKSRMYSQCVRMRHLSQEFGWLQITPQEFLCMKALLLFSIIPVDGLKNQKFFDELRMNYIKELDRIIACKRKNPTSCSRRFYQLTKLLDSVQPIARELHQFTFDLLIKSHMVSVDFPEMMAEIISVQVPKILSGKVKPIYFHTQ
Description: Inhibitory activity against AR
With `C[C@]12CCC3C(CC=C4C[C@@H](O)CC[C@@]43C=O)C1CC[C@@H]2O` (some centres not stated), the IC50 is above 5000 nM.
The same measure, in the same setting: the figure for `CO/C=C\[C@]12CC[C@H](O)CC1=CCC1C2CC[C@@]2(C)C1CC[C@@H]2O` (some centres not stated) is 1400 nM.
Molecule `C=C[C@]12CCC(=O)C=C1CCC1C2CC[C@@]2(C)C1CC[C@@H]2O` (some centres not stated) yielded an IC50 of 7.9 nM.
In the case of `C[C@]12CCC3C(CC=C4C[C@@H](O)CC[C@@]43CO)C1CC[C@@H]2O` (some centres not stated), the IC50 is above 5000 nM.
Turning to `C[C@]12CCC3C(CC=C4C[C@@H](O)CC[C@@]43/C=C/F)C1CC[C@@H]2O` (some centres not stated), half-maximal inhibition (IC50) was put at 85 nM.
Same read-out and setting: the figure for `C[C@]12CCC3C(CC=C4C[C@@H](O)CC[C@@]43/C=C\F)C1CC[C@@H]2O` (some centres not stated) is 11 nM; for `CCC[C@]12CC[C@H](O)CC1=CCC1C2CC[C@@]2(C)C1CC[C@@H]2O` (some centres not stated) it is 1770 nM.
In turn, `C[C@]12CCC3C(CC=C4C[C@@H](O)CC[C@@]43/C=C/Br)C1CC[C@@H]2O` (some centres not stated) registered an IC50 of 120 nM. This IC50 lies about 15-fold lower than the previous one.
`C#CC12CC[C@H](O)CC1=CCC1C2CC[C@@]2(C)C1CC[C@@H]2O` (single isomer, unassigned) displayed an IC50 of 1760 nM.
The molecule `C[C@]12CCC3C(CC=C4C[C@@H](O)CC[C@@]43/C=C/Cl)C1CC[C@@H]2O` (some centres not stated) returned an IC50 of 1440 nM.
The molecule `C#CC1(O)CCC2C3CC=C4C[C@@H](O)CC[C@]4(C=C)C3CC[C@@]21C` (single isomer, unassigned) showed an IC50 of 287 nM.

The target of the next assay is T3, Estrogen receptor beta (Homo sapiens, UniProt Q92731). It is filed as functional, cell-based, HEK293.
T3 sequence (Q92731 whole entry): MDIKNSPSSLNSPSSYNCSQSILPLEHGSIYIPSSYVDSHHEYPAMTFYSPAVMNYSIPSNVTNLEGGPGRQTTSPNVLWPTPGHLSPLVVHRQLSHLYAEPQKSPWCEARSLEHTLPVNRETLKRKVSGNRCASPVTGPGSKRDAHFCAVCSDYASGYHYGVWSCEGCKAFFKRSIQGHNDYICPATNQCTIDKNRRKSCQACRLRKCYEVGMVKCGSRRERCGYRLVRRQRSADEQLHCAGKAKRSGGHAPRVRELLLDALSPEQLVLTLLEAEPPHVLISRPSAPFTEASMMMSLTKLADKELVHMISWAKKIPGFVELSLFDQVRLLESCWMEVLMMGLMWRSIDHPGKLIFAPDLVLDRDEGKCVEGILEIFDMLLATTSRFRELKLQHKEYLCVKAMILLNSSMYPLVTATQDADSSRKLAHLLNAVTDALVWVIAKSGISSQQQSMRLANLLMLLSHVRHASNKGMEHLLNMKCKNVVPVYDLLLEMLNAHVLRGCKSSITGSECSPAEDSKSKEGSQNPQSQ
Description: Effect on transactivation of ALP gene expression in HEK293 cells transfected with hERbeta
Turning to `C[C@]12CCC3C(CC=C4C[C@@H](O)CC[C@@]43C=O)C1CC[C@@H]2O` (some centres not stated), the response was half-maximal at 78 nM (EC50). That is a double-digit nanomolar value.
In turn, `CO/C=C\[C@]12CC[C@H](O)CC1=CCC1C2CC[C@@]2(C)C1CC[C@@H]2O` (some centres not stated) showed an EC50 of 188 nM.
`C/C=C\[C@]12CC[C@H](O)CC1=CCC1C2CC[C@@]2(C)C1CC[C@@H]2O` (some centres not stated) came in with an EC50 of 21 nM.
The same measure, in the same setting: the figure for `C=C[C@]12CCC(=O)C=C1CCC1C2CC[C@@]2(C)C1CC[C@@H]2O` (some centres not stated) is 379 nM; for `C[C@]12CCC3C(CC=C4C[C@@H](O)CC[C@@]43CO)C1CC[C@@H]2O` (some centres not stated) it is above 641 nM; for `C[C@]12CCC3C(CC=C4C[C@@H](O)CC[C@@]43/C=C/F)C1CC[C@@H]2O` (some centres not stated) it is 8.7 nM.
Same read-out and setting: the figure for `C[C@]12CCC3C(CC=C4C[C@@H](O)CC[C@@]43/C=C\F)C1CC[C@@H]2O` (some centres not stated) is 3.8 nM.
In turn, `C[C@]12CCC3C(CC=C4C[C@@H](O)CC[C@@]43/C=C/Br)C1CC[C@@H]2O` (some centres not stated) had an EC50 of 67 nM.
On the same count and under the same terms, next, `C#CC12CC[C@H](O)CC1=CCC1C2CC[C@@]2(C)C1CC[C@@H]2O` (single isomer, unassigned): 8 nM; `C[C@]12CCC3C(CC=C4C[C@@H](O)CC[C@@]43/C=C/Cl)C1CC[C@@H]2O` (some centres not stated): 68 nM; `C#CC1(O)CCC2C3CC=C4C[C@@H](O)CC[C@]4(C=C)C3CC[C@@]21C` (single isomer, unassigned): 24 nM.

The target of another assay is T3, Estrogen receptor beta. This is another data set of the same source.
Description: Binding affinity to human ERbeta
The molecule `C[C@]12CCC3C(CC=C4C[C@@H](O)CC[C@@]43C=O)C1CC[C@@H]2O` (some centres not stated) had an IC50 of 230 nM.
Molecule `CO/C=C\[C@]12CC[C@H](O)CC1=CCC1C2CC[C@@]2(C)C1CC[C@@H]2O` (some centres not stated) returned an IC50 of 303 nM.
On to `C/C=C\[C@]12CC[C@H](O)CC1=CCC1C2CC[C@@]2(C)C1CC[C@@H]2O` (some centres not stated), for which it took 16 nM to reach half-maximal inhibition (IC50).
Take `C=C[C@]12CCC(=O)C=C1CCC1C2CC[C@@]2(C)C1CC[C@@H]2O` (some centres not stated): the IC50 was 782 nM.
The same measure, in the same setting: next, `C[C@]12CCC3C(CC=C4C[C@@H](O)CC[C@@]43CO)C1CC[C@@H]2O` (some centres not stated): 1750 nM; `C[C@]12CCC3C(CC=C4C[C@@H](O)CC[C@@]43/C=C/F)C1CC[C@@H]2O` (some centres not stated): 22 nM.
As for `C[C@]12CCC3C(CC=C4C[C@@H](O)CC[C@@]43/C=C\F)C1CC[C@@H]2O` (some centres not stated), the IC50 came out at 25 nM.
Still for that read-out and setting: the figure for `CCC[C@]12CC[C@H](O)CC1=CCC1C2CC[C@@]2(C)C1CC[C@@H]2O` (some centres not stated) is 132 nM; for `C[C@]12CCC3C(CC=C4C[C@@H](O)CC[C@@]43/C=C/Br)C1CC[C@@H]2O` (some centres not stated) it is 210 nM; for `C#CC12CC[C@H](O)CC1=CCC1C2CC[C@@]2(C)C1CC[C@@H]2O` (single isomer, unassigned) it is 17 nM.
`C[C@]12CCC3C(CC=C4C[C@@H](O)CC[C@@]43/C=C/Cl)C1CC[C@@H]2O` (some centres not stated): the 50% inhibitory concentration (IC50) came out at 122 nM.
Still for that read-out and setting: next, `C#CC1(O)CCC2C3CC=C4C[C@@H](O)CC[C@]4(C=C)C3CC[C@@]21C` (single isomer, unassigned): 14 nM.

A further assay has as its target T1, Estrogen receptor. It is filed as functional, cell-based, HEK293. The source holds these as a separate data set.
Description: Effect on transactivation of ALP gene expression in HEK293 cells transfected with hERalpha
Molecule `C[C@]12CCC3C(CC=C4C[C@@H](O)CC[C@@]43C=O)C1CC[C@@H]2O` (some centres not stated) displayed an EC50 of 844 nM.
In turn, `CO/C=C\[C@]12CC[C@H](O)CC1=CCC1C2CC[C@@]2(C)C1CC[C@@H]2O` (some centres not stated) displayed an EC50 of 3240 nM.
The same measure, in the same setting: the figure for `C/C=C\[C@]12CC[C@H](O)CC1=CCC1C2CC[C@@]2(C)C1CC[C@@H]2O` (some centres not stated) is 344 nM; for `C=C[C@]12CCC(=O)C=C1CCC1C2CC[C@@]2(C)C1CC[C@@H]2O` (some centres not stated) it is above 1000 nM; for `C[C@]12CCC3C(CC=C4C[C@@H](O)CC[C@@]43CO)C1CC[C@@H]2O` (some centres not stated) it is above 1000 nM.
On the same count and under the same terms, the figure for `C[C@]12CCC3C(CC=C4C[C@@H](O)CC[C@@]43/C=C/F)C1CC[C@@H]2O` (some centres not stated) is 324 nM; for `C[C@]12CCC3C(CC=C4C[C@@H](O)CC[C@@]43/C=C\F)C1CC[C@@H]2O` (some centres not stated) it is 622 nM; for `C[C@]12CCC3C(CC=C4C[C@@H](O)CC[C@@]43/C=C/Br)C1CC[C@@H]2O` (some centres not stated) it is above 1000 nM.
For `C#CC12CC[C@H](O)CC1=CCC1C2CC[C@@]2(C)C1CC[C@@H]2O` (single isomer, unassigned), the response was half-maximal at 160 nM (EC50).
On the same count and under the same terms, next, `C[C@]12CCC3C(CC=C4C[C@@H](O)CC[C@@]43/C=C/Cl)C1CC[C@@H]2O` (some centres not stated): 603 nM; `C#CC1(O)CCC2C3CC=C4C[C@@H](O)CC[C@]4(C=C)C3CC[C@@]21C` (single isomer, unassigned): 10 nM.
